This is an account of results in publication PMC6680770, “Effect of Ticagrelor, a Cytochrome P450 3A4 Inhibitor, on the Pharmacokinetics of Tadalafil in Rats” (Pharmaceutics, 2019).

Where “and” joins values, the source holds several entries; their conditions need not be identical. Identical values can stand only once. Like-named read-outs stand apart in the source and are kept apart here.

Data set [1] is described as follows: One-compartment pharmacokinetic modeling of the plasma concentration-time profile of tadalafil. The format is in vivo, Sprague-Dawley rats. Conditions: one-compartment model; for k el: Sprague-Dawley, rat, plasma, read-out: Ke (converted); for k el / Ka / V/F: tadalafil 2 mg/kg oral, mean ± SD, n = 10. The procedure:
(§1) The experiment was performed in a parallel design. A total of 20 rats were randomly divided into two groups. The control group, Group N (n = 10, non-pretreated rats), was orally administered for 7 days only with the vehicle (normal saline/polyethylene glycol 400/dimethyl sulfoxide = 40:20:20). Group T (n = 10, ticagrelor-pretreated rats), an experimental group, received 10 mg/kg of ticagrelor in the vehicle once a day for 7 days orally. Thereafter, on the seventh day, tadalafil (2 mg/kg) was orally administered 30 min after the final administration of the vehicle or ticagrelor. Doses of all samples were calculated according to the weight of the rats and administered using gavage. The dose of ticagrelor and tadalafil given to rats were determined by converting the human doses (90 mg for ticagrelor and 20 mg for tadalafil) to animal doses with body surface area, according to the United States Food and Drug Administration guidelines. Blood (0.3 mL) was collected from the retro-orbital plexus or the jugular vein at predetermined time-points (0, 0.33, 0.67, 1, 1.5, 2, 4, 6, 8, 12, and 24 h) after the oral administration. Samples were centrifuged at 15,000× g for 5 min at 4 °C. The plasma was collected and stored at −20 °C until the concentration of tadalafil was analyzed by LC-MS/MS.
Pharmacokinetic modeling of the plasma concentration-time profile of tadalafil was performed using a one-compartment model to investigate the absorption and elimination rates. The parameters of the one-compartment model of tadalafil were estimated based on data from Group N and Group T.
In this model, the shift of the tadalafil amount in the gut compartment and the central compartment is described by the following equations [33]: dG/dt= −Ka·G dC/dt=Ka·G−Ke·C where G and C represent the amount of tadalafil in the gut compartment and the central compartment, respectively. Ka indicates the absorption rate constant from the gut compartment to the central compartment. Ke indicates the elimination rate constant from the central compartment […]. Each equation was applied to both Group N and Group T data through the classic model of WinNolin software 8.1 (Pharsight Corp., Sunnyvale, CA, USA).
Predicted plasma concentrations of tadalafil (Conpred) using the one-compartment model were estimated by the following equation [34]: Conpred= C/(V/F) where V/F indicates the central volume of distribution of tadalafil.

Data set [2] can be described thus: Pharmacokinetic study of tadalafil after oral administration to non-pretreated and ticagrelor-pretreated rats, non-compartment analysis. Conditions: tadalafil 2 mg/kg oral; for Cmax / AUC(0-inf) / CL/F / Tmax / half-life / AUC(0-t): Sprague-Dawley, rat, plasma, po, 2 mg/kg, mean ± SD, n = 10; for AUC(0-t): read-out: AUC0–24. It is filed as in vivo, Sprague-Dawley rats. The procedure: The concentrations of tadalafil were analyzed by a liquid chromatography tandem-mass spectrometry (LC-MS/MS) system equipped with Agilent 1290 series and Agilent 6495 Triple Quad LC/MS (Agilent Technologies, Santa Clara, CA, USA). A YMC-Triart C18 column (50 × 2.0 mm, 1.9 µm; YMC Inc., Wilmington, NC, USA) was used. The mobile phase was a mixture of 0.2% formic acid in acetonitrile and 0.2% formic acid in distilled water (50:50, v/v), and the flow rate was 0.4 mL/min. The temperature of the column and autosampler were set as 30 °C and 4 °C, respectively. The positive ion mode using Agilent jet stream electrospray ionization (AJS-ESI) was applied to record the scan mass spectra. The ion transitions of tadalafil and IS were set as 390.4→268.1 m/z and 876.4→308.1 m/z, respectively, and detected with a multiple reaction monitoring (MRM) mode. The collision energies for tadalafil and IS were 10 V and 30 V, respectively. The cell accelerator voltage was 5 V and the dwell time was set as 200 ms. The source parameters were set as follows: Gas temperature 200 °C, gas flow 14 L/min, nebulizer 20 psi, sheath gas heater 250 °C, sheath gas flow 11 L/min, capillary 3000 V, and nozzle voltage 1500 V.
as §1
Protein precipitation was applied to extract tadalafil from plasma. Briefly, 200 µL of acetonitrile (0.2 v/v% formic acid) containing 500 ng/mL of IS was added to 20 µL of the plasma sample. After shaking for 5 min, the mixture was centrifuged at 15,000× g for 5 min. The supernatant (150 µL) was transferred and 5 µL of the sample was injected into the LC-MS/MS.
Pharmacokinetic data were analyzed based on the non-compartment analysis of WinNonlin software 8.1 (Pharsight Corp., Sunnyvale, CA, USA). The maximum plasma concentration of tadalafil (maximum concentration (Cmax)) and the time to reach the maximal plasma concentration (Tmax) of tadalafil were determined from the plasma concentration-time profiles. The area under the plasma concentration vs time curve from 0 to 24 h (AUC0–24) was calculated by the linear trapezoidal rule and the area under the plasma concentration vs time curve from 0 h to infinite time (AUC0–∞) was estimated by extrapolating time to infinity. The elimination half-life (T1/2) and apparent total clearance (CL/F) were determined from the ln 2/elimination rate constant and dose/AUC0–∞, respectively.

On the set-up of data set [3]: method as in PMID 14622499. Conditions: cited from earlier work.
The conditions of data set [4]: longer than sildenafil or vardenafil; cited from earlier work.
Another data set relates to CYP3A. Briefly: Classification of ticagrelor as CYP3A inhibitor from changes in tadalafil AUC and clearance. It is filed as in vivo. The following applies: weak inhibitor = increases AUC of CYP substrate 1.25-fold to 2-fold or reduces clearance by 20–50%; inferred from tadalafil AUC (1.61-fold) and clearance (37%) in rats. The procedure:
as §1, with “Blood (0.3 mL) was collected from the retro-orbital plexus or the jugular vein at predetermined time-points (0, 0.33, 0.67, 1, 1.5, 2, 4, 6, 8, 12, and 24 h) after the oral administration. Samples were centrifuged at 15,000× g for 5 min at 4 °C.” left out
Pharmacokinetic data were analyzed based on the non-compartment analysis of WinNonlin software 8.1 (Pharsight Corp., Sunnyvale, CA, USA). The maximum plasma concentration of tadalafil (maximum concentration (Cmax)) and the time to reach the maximal plasma concentration (Tmax) of tadalafil were determined from the plasma concentration-time profiles. […]

[5] abbreviates: Group T, ticagrelor-pretreated rats.
Setting [6] is: ticagrelor-pretreated vs non-pretreated rats.
Setting [7] is: Group T, ticagrelor-pretreated rats (10 mg/kg, 7 days).
Where [8] appears, read: rats, ticagrelor pretreatment, p < 0.05.
[9] abbreviates: rats, ticagrelor-pretreated vs non-pretreated.

In the case of `CN1CC(=O)N2[C@H](c3ccc4c(c3)OCO4)c3[nH]c4ccccc4c3C[C@@H]2C1=O` [tadalafil, Tadalafil], in data set [1] (Group N, non-pretreated rats), the k el is 4.72e-05 s⁻¹; the Ka is 1.71 ± 0.91 h⁻¹; the V/F was 4.39 ± 0.78 L/kg and 4.39 ± 0.76 L/kg. Also, in data set [1] (setting [5]), the k el is 3.61e-05 s⁻¹, the Ka was found to be 1.14 ± 0.73 h⁻¹ and the V/F is 3.36 ± 0.95 L/kg. In addition, in data set [1] (setting [6]), the “Ka Ratio (Group T/Group N)” value was 0.67, the “Ke Ratio (Group T/Group N)” value was 0.77 and the “V/F Ratio (Group T/Group N)” value is on record as 0.77. Moreover, the Cmax (in general, the peak of the concentration-time curve) in data set [2] (Group N, non-pretreated rats (vehicle 7 days)) stood at 376 ± 72.8 ng/mL. In data set [2] (Group N, non-pretreated rats), the total exposure AUC(0-inf) (as a rule, total exposure, with the tail of the curve extrapolated) was 3070 ± 743 ng·h/mL; the CL/F (usually the apparent clearance, not corrected for the fraction that reaches the circulation) is 11.3 mL/min/kg; the Tmax (usually the time at which the peak concentration occurs) is 1.45 ± 0.5 h; the half-life (in general, how long it takes for the measured level to halve) was 3.15 ± 0.23 h. Besides, in data set [2] (Group N, non-pretreated rats), the AUC(0-t) came out at 3050 ± 732 ng·h/mL. The Cmax in data set [2] (Group T, ticagrelor-pretreated rats (10 mg/kg oral once a day, 7 days)) came out at 433 ± 120 ng/mL. In addition, in data set [2] (setting [7]), the AUC(0-inf) was determined as 5100 ± 1800 ng·h/mL, the CL/F is 7.17 mL/min/kg, the Tmax stood at 3.22 ± 1.3 h and the half-life is 4.47 ± 0.89 h. In data set [2] (setting [7]), the AUC(0-t) came out at 4900 ± 1590 ng·h/mL. Moreover, in data set [2] (rats, ticagrelor pretreatment), the “increase of AUC of tadalafil by co-administration with ticagrelor” value is “approximately 61%”; the “increase of Tmax, Group T compared to Group N” value amounted to 2.22 fold; the “reduction of tadalafil clearance, Group T compared with Group N” value was determined as 37%. The “increase of Cmax, Group T compared to Group N” value in data set [2] (rats, ticagrelor pretreatment, no significant difference (p = 0.3332)) was found to be 1.15 fold. Also, in data set [2] (setting [8]), the “increase of AUC0–24 (systemic exposure), Group T compared to Group N” value is listed as 1.61 fold and the “increase of AUC0–∞, Group T compared to Group N” value amounted to 1.66 fold. Further, in data set [2] (setting [9]), the “AUC0–24 Ratio (Group T/Group N)” value amounted to 1.61, the “AUC0–∞ Ratio (Group T/Group N)” value stood at 1.66, the “CL/F Ratio (Group T/Group N)” value is given as 0.63 and the “Cmax Ratio (Group T/Group N)” value was 1.15. In data set [2] (setting [9]), the “T1/2 Ratio (Group T/Group N)” value is on record as 1.42 and the “Tmax Ratio (Group T/Group N)” value amounted to 2.22. Also, the half-life entry in data set [3] (elderly men) was “about 21.6 h”. For the same compound, the half-life result in data set [3] (normal healthy men, after administration) is “approximately 17.5 h”. The “clinical efficacy (duration)” value in data set [4] is reported as “up to 36 h”.
For the compound `CCCSc1nc(N[C@@H]2C[C@H]2c2ccc(F)c(F)c2)c2nnn([C@@H]3C[C@H](OCCO)[C@@H](O)[C@H]3O)c2n1` [ticagrelor, Ticagrelor], the CYP3A inhibitor classification entry in the data set on CYP3A is recorded as “weak CYP3A inhibitor”.
